Where two headings read alike, the source gives them in different places.

Data set [1] is classed as physicochemical. Conditions: DI water, 25° C., 0.5 mM.
The format of data set [2] is physicochemical. The settings on record: SGF with pepsin, pH 1.5, 37° C., 0.5 mM.

Consider `COc1ccc([C@@]23CCC(=NNc4cnccn4)C[C@@H]2N(C)CC3)cc1OC` [Compound 365, N-[[(3aS,7aS)-3a-(3,4-dimethoxyphenyl)-1-methyl-2,3,4,5,7,7a-hexahydroindol-6-ylidene]amino]pyrazin-2-amine], for which the “Condition 2 Conversion (%)” value in data set [1] (time 1 min) is 0%; in data set [1] (time 5 min) it was 0%; in data set [1] (time 30 min), 10.11%; in data set [1] (time 1 h) it was 11.33%; in data set [1] (time 4 h), 12.6%; in data set [1] (time 24 h), 17.4%. Also, the “Condition 1 Conversion (%)” value in data set [2] (time 1 min) stood at 0%; in data set [2] (time 5 min) it was 8.9%; in data set [2] (time 30 min), 47.1%; in data set [2] (time 1 h) it was 77.4%; in data set [2] (time 4 h), 94.1%; in data set [2] (time 24 h), 100%.

For `COc1ccc([C@@]23CCC(=NOCC4CC4)C[C@@H]2N(C)CC3)cc1OC` [Compound 205, (3aS,7aS)-N-(cyclopropylmethoxy)-3a-(3,4-dimethoxyphenyl)-1-methyl-2,3,4,5,7,7a-hexahydroindol-6-imine], the “Condition 2 Conversion (%)” value in data set [1] (time 1 min), in data set [1] (time 5 min), in data set [1] (time 30 min), in data set [1] (time 1 h), in data set [1] (time 4 h) and in data set [1] (time 24 h) was 0% each time. The “Condition 1 Conversion (%)” value turned out to be 0% in data set [2] (time 1 min); 0% in data set [2] (time 5 min); 4.5% in data set [2] (time 30 min); 9.4% in data set [2] (time 1 h); 16.7% in data set [2] (time 4 h); 19.3% in data set [2] (time 24 h).

Regarding `COc1ccc([C@@]23CCC(=NOC(C)(C)C)C[C@@H]2N(C)CC3)cc1OC` [Compound 199, (3aS)-N-tert-butoxy-3a-(3,4-dimethoxyphenyl)-1-methyl-2,3,4,5,7,7a-hexahydroindol-6-imine], the “Condition 2 Conversion (%)” value in data set [1] (time 1 min), in data set [1] (time 5 min), in data set [1] (time 30 min), in data set [1] (time 1 h), in data set [1] (time 4 h) and in data set [1] (time 24 h) was 0% each time. Besides, the “Condition 1 Conversion (%)” value in data set [2] (time 1 min) is reported as 0%; in data set [2] (time 5 min), 0%; in data set [2] (time 30 min), 0%; in data set [2] (time 1 h) it was 4.2%; in data set [2] (time 4 h), 23.6%; in data set [2] (time 24 h), 27.3%.

As for `COc1ccc([C@@]23CCC(=NNc4ccc(F)cc4)C[C@@H]2N(C)CC3)cc1OC` [Compound 361, (3aS,7aS)-3a-(3,4-dimethoxyphenyl)-6-(2-(4-fluorophenyl)-hydrazineylidene)-1-methyloctahydro-1H-indole], the “Condition 2 Conversion (%)” value in data set [1] (time 1 min) is recorded as 0%; in data set [1] (time 5 min) it was 0%; in data set [1] (time 30 min) it was 0%; in data set [1] (time 1 h) it was 0%; in data set [1] (time 4 h), 45%; in data set [1] (time 24 h) it was 100%. The “Condition 1 Conversion (%)” value in data set [2] (time 1 min) is given as 10%; in data set [2] (time 5 min), 100%; in data set [2] (time 30 min) it was 100%; in data set [2] (time 1 h), 100%; in data set [2] (time 4 h) it was 100%; in data set [2] (time 24 h) it was 100%.

As to `COc1ccc([C@@]23CC/C(=N\NC(=O)NC[C@H]4CC[C@H](C(=O)O)CC4)C[C@@H]2N(C)CC3)cc1OC` [Compound 258, 4-[[[[(3aS,7aS)-3a-(3,4-dimethoxyphenyl)-1-methyl-2,3,4,5,7,7a-hexahydroindol-6-ylidene]amino]carbamoylamino]methyl]cyclohexanecarboxylicacid], the “Condition 2 Conversion (%)” value in data set [1] (time 1 min), in data set [1] (time 5 min), in data set [1] (time 30 min), in data set [1] (time 1 h), in data set [1] (time 4 h) and in data set [1] (time 24 h) was 0% throughout. For the same molecule, the “Condition 1 Conversion (%)” value in data set [2] (time 1 min) was determined as 0%; in data set [2] (time 5 min) it was 0%; in data set [2] (time 30 min), 42.82%; in data set [2] (time 1 h), 100%; in data set [2] (time 4 h) it was 100%; in data set [2] (time 24 h), 100%.

With `COc1ccc([C@@]23CCC(=NOCc4ccccc4)C[C@@H]2N(C)CC3)cc1OC` [Compound 208, (3aS,7aS)-N-benzyloxy-3a-(3,4-dimethoxyphenyl)-1-methyl-2,3,4,5,7,7a-hexahydroindol-6-imine], the “Condition 2 Conversion (%)” value in data set [1] (time 1 min), in data set [1] (time 5 min), in data set [1] (time 30 min), in data set [1] (time 1 h), in data set [1] (time 4 h) and in data set [1] (time 24 h) was 0% in each case. Moreover, the “Condition 1 Conversion (%)” value in data set [2] (time 1 min) stood at 0%; in data set [2] (time 5 min) it was 0%; in data set [2] (time 30 min) it was 0%; in data set [2] (time 1 h), 0%; in data set [2] (time 4 h) it was 11.5%; in data set [2] (time 24 h), 12%.

Turning to `COc1ccc([C@@]23CC/C(=N\NC(=O)C4(C(=O)O)CC4)C[C@@H]2N(C)CC3)cc1OC` [Compound 243, 1-[[[(3aS,7aS)-3a-(3,4-dimethoxyphenyl)-1-methyl-2,3,4,5,7,7a-hexahydroindol-6-ylidene]amino]carbamoyl]cyclopropanecarboxylic acid], the “Condition 2 Conversion (%)” value was 0% in data set [1] (time 1 min); 0% in data set [1] (time 5 min); 0% in data set [1] (time 30 min); 0% in data set [1] (time 1 h); 27.04% in data set [1] (time 4 h); 46.78% in data set [1] (time 24 h). In addition, the “Condition 1 Conversion (%)” value stood at 80.17% in data set [2] (time 1 min); 100% in data set [2] (time 5 min); 100% in data set [2] (time 30 min); 100% in data set [2] (time 1 h); 100% in data set [2] (time 4 h); 100% in data set [2] (time 24 h).

For the molecule `COc1ccc([C@@]23CC/C(=N\NC(=O)CCC(=O)O)C[C@@H]2N(C)CC3)cc1OC` [Compound 245, 4-[2-[(3aS,7aS)-3a-(3,4-dimethoxyphenyl)-1-methyl-2,3,4,5,7,7a-hexahydroindol-6-ylidene]hydrazino]-4-oxo-butanoic acid], the “Condition 2 Conversion (%)” value in data set [1] (time 1 min) is 25%; in data set [1] (time 5 min), 35%; in data set [1] (time 30 min) it was 50%; in data set [1] (time 1 h), 100%; in data set [1] (time 4 h), 100%; in data set [1] (time 24 h), 100%. For the same molecule, the “Condition 1 Conversion (%)” value stood at 60% in data set [2] (time 1 min); 100% in data set [2] (time 5 min); 100% in data set [2] (time 30 min); 100% in data set [2] (time 1 h); 100% in data set [2] (time 4 h); 100% in data set [2] (time 24 h).

Take `COc1ccc([C@@]23CCC(=NOCc4cccnc4)C[C@@H]2N(C)CC3)cc1OC` [Compound 209, (3aS)-3a-(3,4-dimethoxyphenyl)-1-methyl-N-(3-pyridylmethoxy)-2,3,4,5,7,7a-hexahydroindol-6-imine]: the “Condition 2 Conversion (%)” value in data set [1] (time 1 min), in data set [1] (time 5 min), in data set [1] (time 30 min), in data set [1] (time 1 h), in data set [1] (time 4 h) and in data set [1] (time 24 h) was 0% in each case. For the same molecule, the “Condition 1 Conversion (%)” value in data set [2] (time 1 min), in data set [2] (time 5 min), in data set [2] (time 30 min), in data set [2] (time 1 h), in data set [2] (time 4 h) and in data set [2] (time 24 h) was 0% in each case.

Turning to `CCON=C1CC[C@@]2(c3ccc(OC)c(OC)c3)CCN(C)[C@H]2C1` [Compound 200, (3aS,7aS)-3a-(3,4-dimethoxyphenyl)-N-ethoxy-1-methyl-2,3,4,5,7,7a-hexahydroindol-6-imine], the “Condition 2 Conversion (%)” value in data set [1] (time 1 min), in data set [1] (time 5 min), in data set [1] (time 30 min), in data set [1] (time 1 h), in data set [1] (time 4 h) and in data set [1] (time 24 h) was 0% throughout. The “Condition 1 Conversion (%)” value worked out at 0% in data set [2] (time 1 min); 0% in data set [2] (time 5 min); 0% in data set [2] (time 30 min); 2.1% in data set [2] (time 1 h); 27.7% in data set [2] (time 4 h); 34.1% in data set [2] (time 24 h).

Take `COc1ccc([C@@]23CC/C(=N\NC(=O)c4ccccc4C(=O)O)C[C@@H]2N(C)CC3)cc1OC` [Compound 244, 2-[[[(3aS,7aS)-3a-(3,4-dimethoxyphenyl)-1-methyl-2,3,4,5,7,7a-hexahydroindol-6-ylidene]amino]carbamoyl]benzoic acid]: the “Condition 2 Conversion (%)” value in data set [1] (time 1 min) was 0%; in data set [1] (time 5 min), 0%; in data set [1] (time 30 min), 4.08%; in data set [1] (time 1 h), 15.25%; in data set [1] (time 4 h), 24.59%; in data set [1] (time 24 h) it was 66.56%. The “Condition 1 Conversion (%)” value in data set [2] (time 1 min) was 33.93%; in data set [2] (time 5 min), 100%; in data set [2] (time 30 min) it was 100%; in data set [2] (time 1 h) it was 100%; in data set [2] (time 4 h), 100%; in data set [2] (time 24 h) it was 100%.

(Values after patent US20250051277A1, “DELIVERY OF THERAPEUTIC ALKALOID COMPOUNDS” (Sensorium Therapeutics, Inc., priority 2021, published 2025).)
